The target in assay [1] is T1, human sphingosine-1-phosphate receptor 1 (S1P1) (Homo sapiens (Human), UniProt P21453). Briefly: Inhibition of cAMP production (HTRF cAMP HiRange), S1P1 CHO-K1 cells. The format is cell-based. The settings on record: for Emax: CHO-K1, efficacy (SPAN) normalized to fingolimod, read-out: hS1P1 cAMP SPAN; for hS1P1 cAMP pEC50: inhibition of cAMP production, S1P1 CHO-K1 cells. The method, then:
(§1) Stable clonal Chinese hamster ovary K1 (CHO-K1) cells co-expressing EA-β-arrestin2 and the human sphingosine-1-phosphate receptor 1 (NM_001400, S1P1) with a C-terminal Prolink™ tag were purchased from DiscoverX corporation (Cat #: 93-0207C2).
(§2) Cell lines were cultured in AssayComplete™ Media 6 (DiscoverX Corporation, Cat #: 920018GF2) at 37° C. and 5% CO2 in a humidified CO2 and temperature-controlled incubator. To begin assay plating, cells were washed with dulbecco's phosphate buffered saline (CellGro, Cat #: 21-031-CV) and lifted from the culturing flask by incubation (37° C., 5 min) with CellStripper (Cellgro, Cat #: 25-056-CI). […] Plated cells were incubated overnight at 37° C. and 5% CO2 in a humidified CO2 and temperature-controlled incubator. Detecting Inhibition of cAMP Production
Agonist-promoted G-protein responses were determined by measuring changes in intracellular cAMP using the HTRF® cAMP HiRange kit (CisBio, Cat #: 62AM6PEJ) based on time-resolved fluorescence resonance energy transfer (TR-FRET) technology. […] Following a 30-minute incubation at 37° C. and 5% CO2 in a humidified CO2 and temperature-controlled incubator, the components of the cAMP HiRange kit were added as per the manufacturer's instructions. After an hour incubation at room temperature, plates were analyzed by a BMG PheraStar microplate reader.
(§3) The tables below include the efficacy of the compound as compared to a positive control, referred to as “SPAN”. These values are normalized to fingolimod, a known agonist of the sphingosine-1-phosphate 1 receptor. The tables also include potency values (pEC50) for modulating discrete receptor-mediated activities (inhibition of cAMP production and […] recruitment).
Target sequence in this assay (P21453 whole entry, looked up): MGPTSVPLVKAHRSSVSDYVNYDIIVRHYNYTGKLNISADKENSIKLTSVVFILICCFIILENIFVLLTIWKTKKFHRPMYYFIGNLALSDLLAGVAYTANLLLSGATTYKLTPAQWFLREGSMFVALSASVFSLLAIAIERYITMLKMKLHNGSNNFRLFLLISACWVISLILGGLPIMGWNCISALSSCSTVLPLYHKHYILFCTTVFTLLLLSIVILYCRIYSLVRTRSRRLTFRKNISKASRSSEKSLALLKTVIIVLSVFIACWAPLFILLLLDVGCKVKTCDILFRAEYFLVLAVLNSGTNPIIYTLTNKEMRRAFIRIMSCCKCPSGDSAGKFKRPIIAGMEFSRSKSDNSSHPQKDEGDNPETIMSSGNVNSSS

The target of assay [2] is T1, human sphingosine-1-phosphate receptor 1 (S1P1). Briefly: β-Arrestin2 recruitment assay (PathHunter), S1P1 CHO-K1 cells. The class given is cell-based. The settings on record: for Emax: CHO-K1, efficacy (SPAN) normalized to fingolimod, read-out: hS1P1 B-arrestin2 SPAN; for hS1P1 B-arrestin2 pEC50: β-arrestin2 recruitment, S1P1 CHO-K1 cells. The method, then:
as §1, §2
Target sequence in this assay (P21453 whole entry, looked up): as above
Target sequence in this assay (P32121 whole entry partner, looked up): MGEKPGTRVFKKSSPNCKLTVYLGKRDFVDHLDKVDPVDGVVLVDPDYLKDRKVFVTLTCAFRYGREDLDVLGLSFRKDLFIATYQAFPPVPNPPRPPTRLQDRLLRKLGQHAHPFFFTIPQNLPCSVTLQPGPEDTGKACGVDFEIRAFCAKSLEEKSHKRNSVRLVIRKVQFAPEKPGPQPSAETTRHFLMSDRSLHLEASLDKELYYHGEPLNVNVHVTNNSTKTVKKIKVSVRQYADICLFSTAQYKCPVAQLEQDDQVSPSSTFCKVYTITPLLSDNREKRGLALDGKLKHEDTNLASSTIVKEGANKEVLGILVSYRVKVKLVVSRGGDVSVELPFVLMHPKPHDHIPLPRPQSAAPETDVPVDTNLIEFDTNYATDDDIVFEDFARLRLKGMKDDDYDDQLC
Agonist-promoted β-arrestin2 recruitment to the sphingosine-1-phosphate 1 receptor was determined using the β-arrestin PathHunter®) Detection kit (DiscoverX Corporation, Cat #: 93-0001). […] In cells that stably express these fusion proteins, stimulation with a cognate agonist results in the interaction of […] and the Prolink™-tagged GPCR. This allows the complementation of the two β-galactosidase fragments and results in the formation of a functional enzyme with β-galactosidase activity. […] Following a 60 minute incubation at 37° C. and 5% CO2 in a humidified CO2 and temperature-controlled incubator, the components of the β-arrestin PathHunter® Detection kit were added as per the manufacturer's instructions. After an hour incubation at room temperature, plates were analyzed by a BMG PheraStar microplate reader.
as §3

Turning to `CCC1(CC)CC(=O)c2cc(-c3nnc(-c4cccnc4)o3)ccc2O1` [Compound 28, 2,2-diethyl-6-(5-(pyridin-3-yl)-1,3,4-oxadiazol-2-yl)chroman-4-one], in assay [1], the Emax is more than 75% and the “hS1P1 cAMP pEC50” value is on record as less than 6.5. Moreover, in assay [2], the Emax was more than 75% and the “hS1P1 B-arrestin2 pEC50” value is less than 5.
For the molecule `CCC1(CC)CC(=O)c2cc(-c3nc(-c4ccc5c(c4)nnn5C(C)C)ns3)ccc2O1` [Compound 29, 2,2-diethyl-6-(3-(1-isopropyl-1H-benzo[d][1,2,3]triazol-5-yl)-1,2,4-thiadiazol-5-yl)chroman-4-one], the “hS1P1 cAMP pEC50” value in assay [1] is on record as less than 6.5. Further, in assay [2], the “hS1P1 B-arrestin2 pEC50” value is less than 5.
Taken in the same sequence, the figures for `CCC1(CC)CC(=O)c2cc(-c3nc(-c4ccc(S(=O)(=O)N(C)C)cc4)no3)ccc2O1` [Compound 30, 4-(5-(2,2-diethyl-4-oxochroman-6-yl)-1,2,4-oxadiazol-3-yl)-N,N-dimethylbenzenesulfonamide] were less than 6.5 and less than 5.
As to `CCC1(CC)CC(=O)c2cc(-c3nc(-c4ccncc4C)no3)ccc2O1` [Compound 31, 2,2-diethyl-6-(3-(3-methylpyridin-4-yl)-1,2,4-oxadiazol-5-yl)chroman-4-one], in assay [1], the Emax was more than 75% and the “hS1P1 cAMP pEC50” value is reported as more than 6.5. Further, in assay [2], the Emax is more than 75% and the “hS1P1 B-arrestin2 pEC50” value is listed as more than 5.
Consider `CCC1(CC)CC(=O)c2cc(-c3nc(-c4ccc(C)s4)no3)ccc2O1` [Compound 34, 2,2-diethyl-6-(3-(5-methylthiophen-2-yl)-1,2,4-oxadiazol-5-yl)chroman-4-one], for which, in assay [1], the “hS1P1 cAMP pEC50” value was less than 6.5. In addition, the “hS1P1 B-arrestin2 pEC50” value in assay [2] is reported as more than 5.
For `COc1ccccc1-c1nnc(-c2ccc3c(c2)nnn3C(C)C)o1` [Compound 35, 5-[5-(2-methoxyphenyl)-1,3,4-oxadiazol-2-yl]-1-(propan-2-yl)-1H-1,2,3-benzotriazole], the “hS1P1 cAMP pEC50” value in assay [1] is less than 6.5. In addition, in assay [2], the “hS1P1 B-arrestin2 pEC50” value is reported as less than 5.
As for `O=C1CC2(CCC(F)(F)CC2)Oc2ccc(-c3nc(-c4cccnc4)no3)cc21` [Compound 36, 4′,4′-difluoro-6-[3-(pyridin-3-yl)-1,2,4-oxadiazol-5-yl]-3,4-dihydrospiro[1-benzopyran-2,1′-cyclohexane]-4-one], in assay [1], the Emax was less than 75% and the “hS1P1 cAMP pEC50” value is less than 6.5. Besides, in assay [2], the Emax is less than 75% and the “hS1P1 B-arrestin2 pEC50” value was less than 5.
For `CC(C)n1nnc2cc(-c3ncc(-c4ccc(F)cc4)s3)ccc21` [Compound 37, 5-(4-fluorophenyl)-2-(1-isopropylbenzotriazol-5-yl)thiazole], the “hS1P1 cAMP pEC50” value in assay [1] is listed as less than 6.5. Besides, the “hS1P1 B-arrestin2 pEC50” value in assay [2] was less than 5.
Consider `CCC1(CC)CC(=O)c2cc(-c3nc(-c4ccnc(OC)c4)no3)ccc2O1` [Compound 38, 2,2-diethyl-6-(3-(2-methoxypyridin-4-yl)-1,2,4-oxadiazol-5-yl)chroman-4-one], for which, in assay [1], the Emax is less than 75% and the “hS1P1 cAMP pEC50” value was less than 6.5. Further, in assay [2], the Emax was more than 75% and the “hS1P1 B-arrestin2 pEC50” value is reported as less than 5.
In the case of `C=CCn1nc2ccc(-c3nc(-c4ccccc4)no3)cc2n1` [Compound 39, 5-(3-phenyl-1,2,4-oxadiazol-5-yl)-2-(prop-2-en-1-yl)-2H-1,2,3-benzotriazole], the “hS1P1 cAMP pEC50” value in assay [1] is recorded as less than 6.5. Further, in assay [2], the “hS1P1 B-arrestin2 pEC50” value was less than 5.
Take `Brc1ccccc1-c1nc(-c2ccc3c(c2)nnn3C2CCCC2)no1` [Compound 40, 5-(2-bromophenyl)-3-(1-cyclopentyl-1H-benzo[d][1,2,3]triazol-5-yl)-1,2,4-oxadiazole]: the “hS1P1 cAMP pEC50” value in assay [1] was more than 6.5. In assay [2], the “hS1P1 B-arrestin2 pEC50” value is reported as more than 5.
For the molecule `O=C1CC2(CCCCC2)Oc2ccc(-c3nc(-c4cccnc4)no3)cc21` [Compound 41, 6-[3-(pyridin-3-yl)-1,2,4-oxadiazol-5-yl]-3,4-dihydrospiro[1-benzopyran-2,1′-cyclohexane]-4-one], in assay [1], the Emax was less than 75% and the “hS1P1 cAMP pEC50” value was less than 6.5. Further, in assay [2], the Emax is less than 75% and the “hS1P1 B-arrestin2 pEC50” value is on record as less than 5.
